Results as given in publication PMC6606765, “Stargazin and γ4 slow the channel opening and closing rates of GluA4 AMPA receptors” (Scientific Reports, 2019).
Where “and” joins values, the source holds several entries; their conditions need not be identical. Equal entries are not always repeated.

Assays:
[1] = target: T1, GluA4 homomeric channels (Rattus norvegicus, UniProt P19493); test: Whole-cell current recording with fast solution flow (dose-response, desensitization) in transfected HEK-293 cells; type: cell-based
T1 construct: expressed in transfected cells; host or cells: HEK-293S
T1 sequence (P19493 21-902 isoform P19493-2 limits assumed): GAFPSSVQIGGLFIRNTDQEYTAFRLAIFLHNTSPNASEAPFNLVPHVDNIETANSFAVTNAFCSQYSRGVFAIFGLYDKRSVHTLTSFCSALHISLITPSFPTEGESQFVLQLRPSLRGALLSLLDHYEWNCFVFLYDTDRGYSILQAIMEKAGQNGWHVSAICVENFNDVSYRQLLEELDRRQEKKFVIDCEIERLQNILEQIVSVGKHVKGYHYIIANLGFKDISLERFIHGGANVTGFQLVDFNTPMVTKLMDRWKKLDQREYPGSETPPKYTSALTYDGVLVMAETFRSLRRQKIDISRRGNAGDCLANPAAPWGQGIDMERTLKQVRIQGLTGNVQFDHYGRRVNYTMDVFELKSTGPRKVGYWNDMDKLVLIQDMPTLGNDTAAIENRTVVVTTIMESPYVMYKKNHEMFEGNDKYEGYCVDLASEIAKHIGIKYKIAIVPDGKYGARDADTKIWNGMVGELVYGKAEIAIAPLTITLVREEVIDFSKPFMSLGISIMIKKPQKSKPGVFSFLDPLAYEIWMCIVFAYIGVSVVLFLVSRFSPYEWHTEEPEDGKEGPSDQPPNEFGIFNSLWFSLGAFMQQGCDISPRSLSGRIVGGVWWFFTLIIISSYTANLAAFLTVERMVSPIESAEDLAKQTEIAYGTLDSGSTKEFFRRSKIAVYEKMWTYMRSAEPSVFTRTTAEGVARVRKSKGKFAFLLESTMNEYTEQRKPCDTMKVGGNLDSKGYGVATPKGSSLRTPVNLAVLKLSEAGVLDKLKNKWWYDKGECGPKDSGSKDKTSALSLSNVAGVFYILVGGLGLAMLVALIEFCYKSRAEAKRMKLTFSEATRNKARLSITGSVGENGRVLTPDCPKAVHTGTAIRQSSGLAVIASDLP
Method: (§1) The γ-2 and γ-4 plasmids were generously provided by Prof. Susumu Tomita. The flip isoform of GluA4[30] with and without a TARP was transiently expressed in HEK-293S cell. The tissue culture and transfection procedure were described before. In brief, HEK-293S cells were cultured in Dulbecco’s modified Eagle’s medium supplemented with 10% fetal bovine serum, 100 U/mL penicillin, and 100 μg/mL streptomycin in a 37 °C, 6% CO2, humidified incubator. In co-transfecting a TARP, we used 1:1 and 1:2 weight ratio of the plasmid of GluA4 to a TARP (GluA4 plasmid was 3–6 μg/35 mm dish). Co-transfection also included green fluorescent protein (GFP) and large T-antigen (TAg)[46]. We also added a 2,3-benzodiazepine inhibitor[47] after transfection to prevent cell toxicity due to transfection of TARP. Transfected cells were grown for >48 h before recording.
(§2) Briefly, the pipet solution or internal solution contained (in mM) 110 CsF, 30 CsCl, 4 NaCl, 0.5 CaCl2, 5 EGTA, and 10 HEPES (pH 7.4 adjusted by NaOH). The external cellular solution or bath solution contained (in mM) 150 NaCl, 3 KCl, 1 CaCl2, 1 MgCl2, and 10 HEPES (pH 7.4 adjusted by NaOH)[46]. The GFP fluorescence in transfected cells was visualized on an Axiovert S100 microscope with a fluorescent detection system from Carl Zeiss. The whole-cell current was recorded using an Axopatch-200B amplifier at a cutoff frequency of 2–20 kHz by a built-in, four-pole Bessel filter and digitized at 5–50 kHz sampling frequency using an Axon Digidata 1322 A. Unless otherwise noted, all experiments were performed with transfected HEK-293S cells voltage-clamped at −60 mV and at 22 °C.
(§3) The laser-pulse photolysis technique was used to measure the channel-opening kinetic constants of an AMPA receptor, as we previously reported. […] A Minilite II pulsed Q-switched Nd:YAG laser (Continuum, Santa Clara, CA) delivered single pulses at 355 nm with a pulse length of 8 ns.
(§4) Based on this general, minimal mechanism of channel opening, Eq. 1 was derived. In Eq. 1, IA is the observed amplitude of macroscopic current amplitude, IM is the current per mole of receptor, RM the number of moles of receptors on the cell surface, and Φ^−1 the channel opening equilibrium constant. A non-linear regression was performed to determine K1, along with other parameters, from a dose-response relationship. Each of the current traces was corrected for desensitization before it was used in calculating dose-response relationship[48].1 IA=IMRML^n/L^n+Φ(L+K1)^n

[2] = target: T2, GluA4/γ2 (Rattus norvegicus, UniProt P19493); test: as above; type: cell-based
T2 construct: expressed in transfected cells; host or cells: HEK-293S
T2 sequence (P19493 21-902 isoform P19493-2 limits assumed): as above
Method: as §1, §2, §3, §4

[3] = target: T3, GluA4/γ4 (Rattus norvegicus, UniProt P19493); test: as above; type: cell-based
T3 construct: expressed in transfected cells; host or cells: HEK-293S
T3 sequence (P19493 21-902 isoform P19493-2 limits assumed): as above
Method: as §1, §2, §3, §4

[4] = target: T1, GluA4 homomeric channels; test: Laser-pulse photolysis of caged glutamate with whole-cell current recording (channel-opening kinetics); type: cell-based; settings: linear fit of kobs vs glutamate concentration, Eq. 3, ±SEM
Method: as §1, §2, §3
(§5) The kop and kcl values were determined from the rising phase of a whole-cell current trace in a laser-pulse photolysis experiment. […] The observed first-order rate constant of channel opening, kobs, was estimated by using Eq. 22 It=Imax(1−e^−kobst) where It and Imax represent the whole-cell current amplitude at time t, and the maximum current amplitude, respectively. Based on the general mechanism of channel opening, Eq. 3 was derived to describe the relationship between kobs and ligand concentration:3 kobs=kcl+kop(L/L+K1)^n
(§6) In deriving Eq. 3, we assumed the rate of ligand binding was fast relative to the rate of channel opening.

[5] = target: T2, GluA4/γ2; test: as above; type: cell-based
Method: as §1, §2, §3, §5, §6

[6] = target: T3, GluA4/γ4; test: as above; type: cell-based
Method: as §1, §2, §3, §5, §6

[7] = target: T1, GluA4 homomeric channels; design: method as in PMID 15823042; settings: GluA4 alone; cited from earlier work
[8] = best fit of dose-response with Eq. 1
[9] = mean ±SD, saturated whole-cell responses evoked by 10 and 20 mM glutamate, HEK-293S, −60 mV, 22 °C
[10] = Table S2A nonlinear fitting, kcl fixed 1000 s-1
[11] = Table S2A nonlinear fitting, kcl fixed 1200 s-1
[12] = Table S2A nonlinear fitting, kcl fixed 1400 s-1
[13] = linear fit of kobs vs glutamate concentration, Eq. 3, ±SEM
[14] = Table S3A nonlinear fitting, kcl fixed 900 s-1
[15] = Table S3A nonlinear fitting, kcl fixed 1100 s-1
[16] = Table S3A nonlinear fitting, kcl fixed 1300 s-1

N[C@@H](CCC(=O)O)C(=O)O [glutamate]
Φ (Φ^−1 = channel opening equilibrium constant) [1, 8]: 0.36 ± 0.88 | Hill Coefficient ([1]; dose-response curve): 2.18 ± 0.21 | kdes (maximum desensitization rate constant) [1, 9]: 181 ± 7 s⁻¹ | Φ (Φ^−1 = channel opening equilibrium constant) [2, 8]: 0.41 ± 0.95 | Hill Coefficient ([2]; dose-response curve): 1.07 ± 0.14 | kdes (maximum desensitization rate constant) [2, 9]: 135 ± 11 s⁻¹ | Φ (Φ^−1 = channel opening equilibrium constant) [3, 8]: 0.39 ± 1.36 | Hill Coefficient ([3]; dose-response curve): 1.08 ± 0.10 | kdes (maximum desensitization rate constant) [3, 9]: 90 ± 12 s⁻¹ | kcl (channel-closing rate constant) [4]: 3.4 ± 0.1 x 10^3 s^−1 and 3.39 ± 0.11 x 10^3 s^−1 | kop (channel-opening rate constant) [4]: 6.4 ± 0.4 x10^4 s^−1 and 6.41 ± 0.44 x10^4 s^−1 | Popen (channel-opening probability) ([5]; Popen = kop/(kop + kcl)): ~ 0.93 | kop, final output Ave. [5, 10]: 17591 s⁻¹ | n, final output Ave. [5, 10]: 1.59 | kop, final output Ave. [5, 11]: 19225 s⁻¹ | n, final output Ave. [5, 11]: 1.88 | kop, final output Ave. [5, 12]: 22936 s⁻¹ | n, final output Ave. [5, 12]: 2.11 | kop, final output Ave. ([5]; Table S2B nonlinear fitting, n fixed 2, kcl fixed 1000 s-1): 15488 s⁻¹ | kop, final output Ave. ([5]; Table S2B nonlinear fitting, n fixed 2, kcl fixed 1200 s-1): 15607 s⁻¹ | kop, final output Ave. ([5]; Table S2B nonlinear fitting, n fixed 2, kcl fixed 1400 s-1): 18961 s⁻¹ | kcl (channel-closing rate constant) [5, 13]: 1.2 ± 0.1 x 10^3 s^−1 and 1.17 ± 0.11 x 10^3 s^−1 | kop (channel-opening rate constant) [5, 13]: 1.3 ± 0.1 x10^4 s^−1 and 1.32 ± 0.12 x10^4 s^−1 | Popen (channel-opening probability) ([6]; Popen = kop/(kop + kcl)): ~ 0.93 | kop, final output Ave. [6, 14]: 16862 s⁻¹ | n, final output Ave. [6, 14]: 1.99 | kop, final output Ave. [6, 15]: 16375 s⁻¹ | n, final output Ave. [6, 15]: 2.20 | kop, final output Ave. [6, 16]: 15640 s⁻¹ | n, final output Ave. [6, 16]: 2.41 | kop, final output Ave. ([6]; Table S3B nonlinear fitting, n fixed 2, kcl fixed 900 s-1): 15152 s⁻¹ | kop, final output Ave. ([6]; Table S3B nonlinear fitting, n fixed 2, kcl fixed 1100 s-1): 13642 s⁻¹ | kop, final output Ave. ([6]; Table S3B nonlinear fitting, n fixed 2, kcl fixed 1300 s-1): 11557 s⁻¹ | kcl (channel-closing rate constant) [6, 13]: 1.1 ± 0.1 x 10^3 s^−1 and 1.08 ± 0.05 x 10^3 s^−1 | kop (channel-opening rate constant) [6, 13]: 1.7 ± 0.2 x10^4 s^−1 and 1.70 ± 0.15 x10^4 s^−1 | Popen (channel-opening probability) [7]: 0.96
